Measured values: patent publication US5468469A, “Methods of using azo dyes and their derivatives” (The United States of America as represented by the …, priority 1994, dated 1995)
Each block holds one molecule with its values, some of them ahead of it.

Assays:
CD4 [1] = target: T1, CD4 (Homo sapiens, UniProt P01730); test: Inhibition of binding of αCD4-FITC (anti-Leu3a) to PBL, flow cytometry
T1 construct: PBL were prepared by density gradient centrifugation; endogenous in cells; host or cells: human peripheral blood lymphocytes (PBL)
Procedure: (§1) For these binding assays, PBL were prepared by density gradient centrifugation, and the effect of the azo dyes on the binding of anti-CD4-FITC (Becton Dickinson, Mountain View, Calif.) was measured (Weaver et al., supra). Cells were treated with an azo dye for at least 10 minutes at room temperature, or for more than 30 minutes at 4° C., and were then contacted with FITC-labeled antibody. Binding was measured by quantitating cell bound fluorescence using flow cytometry.

[2] = target: T2, HIV rgp120 binding to CD4 (Homo sapiens, UniProt P01730); test: Inhibition of HIV rgp120 binding to CD4 on PBL, detected with anti-rgp120-FITC; conditions: PBS, % logarithmic mean channel number of rgp120 binding detected by αrgp120-FITC
T2 construct: PBL were prepared by density gradient centrifugation; endogenous in cells; host or cells: human peripheral blood lymphocytes (PBL)
Procedure: as §1, with “Since anti-Leu3a (αCD4) and recombinant HIV coat protein (rgp120) bind to the same site on the CD4 molecule, interference in binding of CD4 confirms interference in HIV binding to αCD4 (Weaver et al., AIDS Res. Human Retrovir., 6, 1125-1130 (1990)). For” for “For”
The ability of Direct Orange 26, Direct Red 23, Direct Red 24, and Direct Red 26 to inhibit the binding of HIV rgp120 to CD4 was determined using monoclonal anti-rgp120-FITC (Genentech, Inc., San Francisco, Calif.) to detect recombinant HIV coat protein in the binding assay described in Example 1.

CD4 [3] = target: T1, CD4; test: Dose-response of inhibition of αCD4 binding in presence (RPMI 1640 with 5% serum) and absence (PBS) of serum; conditions: RPMI 1640 with 5% serum versus PBS; FIG. 1
Procedure: as §1

[4] = target: T3, CD3 (αCD3 binding to PBL) (Homo sapiens, UniProt P07766); test: Specificity: binding of αCD3-FITC to PBL; conditions: PBS, % logarithmic mean channel number of αCD3-FITC binding, read-out: % Control Binding (αCD3)
T3 construct: endogenous in cells; host or cells: human peripheral blood lymphocytes (PBL)

[5] = target: T4, CD8 (αCD8 binding to PBL) (Homo sapiens, UniProt P01732); test: Specificity: binding of αCD8-FITC to PBL; conditions: PBS, % logarithmic mean channel number of αCD8-FITC binding, read-out: % Control Binding (αCD8)
T4 construct: endogenous in cells; host or cells: human peripheral blood lymphocytes (PBL)
Procedure: as §1, with “Since anti-Leu3a (αCD4) and recombinant HIV coat protein (rgp120) bind to the same site on the CD4 molecule, interference in binding of CD4 confirms interference in HIV binding to αCD4 (Weaver et al., AIDS Res. Human Retrovir., 6, 1125-1130 (1990)). For” for “For”
The specificity of the dyes was confirmed by testing their ability to interfere with the binding of two other monoclonal antibodies, αCD3 and αCD8, to PBL using the binding assay described in Example 1.

[6] = Viability of PBL after 72 hour culture with αTCR stimulation, propidium iodide exclusion; format: cell-based, human; conditions: pbl
Procedure: (§2) Cells were then washed once in PBS, and resuspended in PBS with 3 μg/ml propidium iodide. After 10 minutes incubation, the cells were analyzed by flow cytometry. Live cells were defined as those excluding propidium iodide.

PBL = test: as above; format: cell-based, human
Procedure: as §2

HIV isolate LAV-1BR = test: HIV replication in phytohemagglutinin-stimulated human PBL, intracellular p24 ELISA; format: cell-based; conditions: six days culture; for pg/ml HIV p24: virus only 101,000
Text: The ability of the azo dyes to negatively affect HIV replication was verified after six days of culturing the HIV isolate LAV-1BR in phytohemagglutinin-stimulated human PBL. For this experiment, the amount of intracellular HIV p24 protein in cell lysates was quantitated with use of an HIV p24 enzyme linked immunosorbent assay kit (Cellular Products, Buffalo, N.Y.) as described in Anand et al., AIDS Res. Human Retrovir., 6, 679-689 (1990). This measure of p24 protein was considered an indication of HIV replication. Aurintricarboxylic acid (ATA; Sigma Chemical Co., St. Louis, Mo.) was included in this experiment as a positive control, and the solvent DMSO was utilized for further comparative purposes.

[7] = read-out: % Control Binding (HIV rgp120)
[8] = 20 μM, PBS, % logarithmic mean channel number of αCD4-FITC binding

T3 sequence (P07766 23-207): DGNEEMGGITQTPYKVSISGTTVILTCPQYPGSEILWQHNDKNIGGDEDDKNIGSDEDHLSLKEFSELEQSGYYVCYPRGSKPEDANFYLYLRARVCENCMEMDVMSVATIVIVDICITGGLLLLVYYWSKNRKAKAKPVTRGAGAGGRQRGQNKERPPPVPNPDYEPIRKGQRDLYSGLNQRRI
T3 sequence (P04234 22-171 partner): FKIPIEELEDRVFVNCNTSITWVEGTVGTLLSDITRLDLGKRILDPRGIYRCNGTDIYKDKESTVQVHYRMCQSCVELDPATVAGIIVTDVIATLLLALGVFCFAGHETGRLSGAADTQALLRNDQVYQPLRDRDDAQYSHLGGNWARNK
T3 sequence (P09693 23-182 partner): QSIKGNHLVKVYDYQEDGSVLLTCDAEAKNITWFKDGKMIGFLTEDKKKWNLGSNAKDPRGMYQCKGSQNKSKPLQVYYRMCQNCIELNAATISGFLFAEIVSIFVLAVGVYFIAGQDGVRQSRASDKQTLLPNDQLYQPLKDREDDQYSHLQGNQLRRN
T3 sequence (P20963 22-164 partner): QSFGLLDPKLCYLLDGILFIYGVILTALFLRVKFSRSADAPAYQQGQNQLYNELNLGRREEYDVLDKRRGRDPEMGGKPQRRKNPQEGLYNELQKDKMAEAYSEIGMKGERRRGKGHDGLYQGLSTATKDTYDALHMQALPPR
T4 sequence (P01732 22-235): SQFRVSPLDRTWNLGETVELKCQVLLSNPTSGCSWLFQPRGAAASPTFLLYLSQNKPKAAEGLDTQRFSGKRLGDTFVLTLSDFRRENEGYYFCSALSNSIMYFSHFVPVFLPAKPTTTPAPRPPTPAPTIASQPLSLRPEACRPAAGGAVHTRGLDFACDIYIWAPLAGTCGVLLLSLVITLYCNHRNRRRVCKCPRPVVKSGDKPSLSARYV
T4 sequence (P10966 22-210 partner): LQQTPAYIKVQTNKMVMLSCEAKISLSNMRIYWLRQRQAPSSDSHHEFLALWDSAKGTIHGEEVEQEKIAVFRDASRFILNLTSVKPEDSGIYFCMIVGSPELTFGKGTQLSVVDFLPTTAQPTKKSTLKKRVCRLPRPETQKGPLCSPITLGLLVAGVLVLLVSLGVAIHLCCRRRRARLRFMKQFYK

Molecule: Cc1cc(-c2ccc(/N=N/c3ccc4c(S(=O)(=O)O)cc(S(=O)(=O)O)c(N)c4c3O)c(C)c2)ccc1/N=N/c1ccc2c(S(=O)(=O)O)cc(S(=O)(=O)O)c(N)c2c1O [Evans Blue, Evans blue, reference compound]
% Control Binding (αCD4) (CD4 [1]; 1 μM, PBS, % logarithmic mean channel number of αCD4-FITC binding): 1%
remaining activity at 1 µM (CD4 [1]; 1 μM, PBS, % logarithmic mean channel number of αCD4-FITC binding, read-out: % Control Binding (αCD4)): 1%
remaining activity at 1 µM [2, 7]: 8%

Fold more dye needed to inhibit αCD4 binding in the presence of serum (CD4 [3]): about 100 ×
Molecule: O=S(=O)([O-])c1ccc2c(N=Nc3ccccc3)ccc(N=Nc3ccc(Nc4ccccc4)c4c(S(=O)(=O)[O-])cccc34)c2c1.[Na+].[Na+] [Acid Blue 116]

Molecule: O=C(Nc1ccc2c(O)c(N=Nc3ccccc3)c(S(=O)(=O)O)cc2c1)Nc1ccc2c(O)c(N=Nc3ccccc3)c(S(=O)(=O)O)cc2c1 [Direct Orange 26]
Inhibition of the binding of αCD4 to CD4 (in words) (CD4 [1]; 10 μM): completely inhibited
remaining activity at 10 µM (CD4 [1]; 10 μM, PBS, % logarithmic mean channel number of αCD4-FITC binding, read-out: % Control Binding (αCD4)): 0%
remaining activity at 1 µM [2, 7]: 26%
remaining activity at 2.5 µM ([2]; 2.5 μM, read-out: % Control Binding (HIV rgp120)): 15%
remaining activity at 10 µM [4]: 103%
remaining activity at 10 µM [5]: 65%
Fold more dye needed to inhibit αCD4 binding in the presence of serum (CD4 [3]): about 5 ×
viability at 72 h, 400 µM ([6]; 400 μM, untreated 78.2, read-out: % Viable Cells): 67.5%
viability at 72 h, 800 µM ([6]; 800 μM, untreated 78.2, read-out: % Viable Cells): 71.5%
cytotoxicity at 72 h ([6]; 400-800 μM, read-out: Reduction of viability): ≤ 10%
Effect on PBL viability / lymphocyte proliferation (in words) (PBL): only a slight negative effect
pg/ml HIV p24 (HIV isolate LAV-1BR; 50 μg/ml): 71 pg/mL
pg/ml HIV p24 (HIV isolate LAV-1BR; 100 μg/ml): 61 pg/mL
Effect on HIV replication (in words) (HIV isolate LAV-1BR; 50-100 μg/ml): strongly decrease HIV replication

Molecule: CC(=O)Nc1ccc(N=Nc2c(S(=O)(=O)O)cc3cc(NC(=O)Nc4ccc5c(O)c(N=Nc6ccccc6)c(S(=O)(=O)O)cc5c4)ccc3c2O)cc1 [Direct Red 23]
Inhibition of the binding of αCD4 to CD4 (in words) (CD4 [1]; 20 μM): completely inhibited
remaining activity at 20 µM (CD4 [1]; 20 μM, PBS, % logarithmic mean channel number of αCD4-FITC binding, read-out: % Control Binding (αCD4)): 0%
remaining activity at 5 µM ([2]; 5.0 μM, read-out: % Control Binding (HIV rgp120)): 10 to 15%

Molecule: COc1ccccc1N=Nc1c(S(=O)(=O)[O-])cc2cc(NC(=O)Nc3ccc4c(O)c(N=Nc5ccc(S(=O)(=O)[O-])cc5C)c(S(=O)(=O)[O-])cc4c3)ccc2c1O.[Na+].[Na+].[Na+] [Direct Red 24]
Inhibition of the binding of αCD4 to CD4 (in words) (CD4 [1]; 20 μM): completely inhibited
% Control Binding (αCD4) (CD4 [1]; [8]): 0%
% Control Binding (HIV rgp120) ([2]; 5.0 μM): 10-15%

Molecule: Direct Red 26
Inhibition of the binding of αCD4 to CD4 (in words) (CD4 [1]; 20 μM): completely inhibited
% Control Binding (αCD4) (CD4 [1]; [8]): 0%
% Control Binding (HIV rgp120) ([2]; 5.0 μM): 10-15%

Fold more dye needed to inhibit αCD4 binding in the presence of serum (CD4 [3]): about 100 ×
Molecule: Cc1ccccc1N=Nc1ccc(N=Nc2c(O)c(S(=O)(=O)[O-])cc3cc(S(=O)(=O)[O-])ccc23)c(C)c1.[Na+].[Na+] [Acid Red 115]

Fold more dye needed to inhibit αCD4 binding in the presence of serum (CD4 [3]): about 100 ×
Molecule: COc1cc(N=Nc2cc(S(=O)(=O)[O-])cc3cc(S(=O)(=O)[O-])cc(O)c23)c(C)cc1NC(=O)Nc1cc(C)c(N=Nc2cc(S(=O)(=O)[O-])cc3cc(S(=O)(=O)[O-])cc(O)c23)cc1OC.[Na+].[Na+].[Na+].[Na+] [Direct Red 79]

Molecule: O=C(O)C1=CC(=C(c2ccc(O)c(C(=O)O)c2)c2ccc(O)c(C(=O)O)c2)C=CC1=O [ATA, Aurintricarboxylic acid, reference compound]
pg/ml HIV p24 (HIV isolate LAV-1BR; 50 μg/ml): 1 pg/mL
